Consider 1 compound from patent publication US20110189758A1, “TRANSFECTION VECTOR” (Anaeropharma Science, Inc., priority 2010, published 2011).

The assay relates to Human breast cancer cell line KPL-1 tumor. It counts as in vivo, nude mouse.

Where two headings read alike, the source gives them in different places.

With `COc1cccc2c1C(=O)c1c(O)c3c(c(O)c1C2=O)C[C@@](O)(C(=O)CO)C[C@@H]3O[C@H]1C[C@H](N)[C@H](O)[C@H](C)O1` [adriamycine, adriamycin], the “Tumor volume, Average” value is, setting by setting: (Day 0 (grouping)) 97.7 mm3; (Day 4) 133.6 mm3; (Day 7) 145.4 mm3; (Day 11) 257.9 mm3; (Day 15) 415.2 mm3; (Day 19) 625.2 mm3. The “Tumor volume, Average” value (Day 21) was determined as 852.6 mm3. Moreover, under “average tumor volume of group / Group I × 100”, the “T/C (%) at Day 21” value is reported as 63.8%.
